Reference: PMC10232370 (2023)
Like-named read-outs stand apart in the source and are kept apart here. Each block holds one compound with its values, some of them ahead of it.

Tests used:
[1] = system: Cy5-2DCS model with two A bulges (RNA, mismatch bulge abasic) GGGUUUAAUAGAUACGAAAGUACUAAUUGGAUCC; assay: microscale thermophoresis
[2] = system: Cy5-2DCS model fully base paired (RNA, hairpin) GGGUUUAAUUAGAUACGAAAGUAUCUAAUUGGAUCC; assay: microscale thermophoresis; conditions: no saturable binding
[3] = system: Cy5-5'GAU/3'C_A mimic (minimized pre-miR-155 A bulge) (RNA, mismatch bulge abasic) GUAAUGAUUACGAAAGUAACAUUGC; assay: microscale thermophoresis
[4] = system: Cy5-5'GAU/3'CUA mimic (A bulge to AU pair) (RNA, hairpin) GUAAUGAUUACGAAAGUAAUCAUUGC; assay: microscale thermophoresis; conditions: no saturable binding
[5] = system: pre-miR-155 A bulge with 2-aminopurine (2AP) (RNA, mismatch bulge abasic, 2-aminopurine in place of the bulged A) GUAAUGAUUACGAAAGUAACAUUGC; assay: 2-aminopurine fluorescence titration
[6] = system: Cy5-labelled JUN IRES model (RNA, mRNA element) GCAGUAUAGGAAACUAACUGC; assay: Cy5 fluorescence titration
[7] = system: JUN IRES fully paired control (A bulge to AU pair), Cy5 (RNA, mRNA element) GCAGUAUAGGAAACUAUACUGC; assay: Cy5 fluorescence titration; conditions: no saturable binding
[8] = system: JUN IRES A bulge model with 2AP (5'UAU/3'A_A) (RNA, mRNA element, 2-aminopurine in place of the bulged A) GCAGUAUAGGAAACUAACUGC; assay: 2-aminopurine fluorescence titration
[9] = system: Cy5-labelled MYC IRES 5'UUCG/3'ACCC 2x2 internal loop model (RNA, mRNA element) GGGGGCUUCGCCUCUGGCCCAGCCCUC; assay: Cy5 fluorescence titration
[10] = system: MYC IRES fully paired control RNA (RNA, mRNA element) GGGGGCUUCGCCUCUGGCGAAGCCCUC; assay: Cy5 fluorescence titration
[11] = system: pre-miR-155 (wild type) (RNA, miRNA) GGCUGUUAAUGCUAAUCGUGAUAGGGGUUUUUGCCUCCAACUGACUCCUACAUAUUAGCAUUAACAG; assay: competition with 2AP-labelled RNA; conditions: RIBOTAC 5 µM, 2AP-labelled A bulge RNA 1 µM; unlabelled pre-miR-155 as competitor
[12] = system: pre-miR-155 +U49 mutant (A bulge to AU pair) (RNA, miRNA) GGCUGUUAAUGCUAAUCGUGAUAGGGGUUUUUGCCUCCAACUGACUCCUAUCAUAUUAGCAUUAACAG; assay: competition with 2AP-labelled RNA; conditions: RIBOTAC 5 µM, 2AP-labelled A bulge RNA 1 µM; mutant does not compete
[13] = system: JUN IRES 2AP control RNA (bulge converted to base pair) (RNA, mRNA element, 2-aminopurine (position not given)) GCAGUAUAGGAAACUAUACUGC; assay: 2-aminopurine fluorescence titration

Structure (SMILES): CCCCCCCCCCCc1c(CCCCCCCCCCC)[n+](-c2c(C(C)C)cccc2C(C)C)cn1-c1c(C(C)C)cccc1C(C)C
Kd [1]: 1.2 ± 0.1 µM
binding [2]: no
Kd [3]: 0.8 ± 0.1 µM
binding [4]: no
Kd,app ([5]; apparent, error printed as 1.2): 3.9 ± 1 µM

Structure (SMILES): CCCNC(=O)CCc1c(C)n(-c2c(C(C)C)cccc2C(C)C)c[n+]1-c1c(C(C)C)cccc1C(C)C
Kd ([3]; similar affinity to C1): 1.1 ± 0.1 µM
binding ([5]; similar affinity to C1): yes

Structure (SMILES): CNc1nc(Nc2ccc(C3=NCCN3)cc2)nc(Nc2ccc(C3=NCCN3)cc2)n1
Kd [6]: 3.2 ± 2 µM
EC50 [8]: 1.1 ± 0.2 µM
EC50 [13]: > 50 µM

Structure (SMILES): O=C(Nc1ccc(C2=NCCN2)cc1)Nc1cc(NC(=O)Nc2ccc(C3=NCCN3)cc2)cc(C(=O)O)c1
Kd [9]: 2.3 ± 1 µM
binding [10]: no

Further lines, results first:

Kd [6]: 0.4 ± 0.1 µM
binding [7]: no
EC50 [8]: 3.5 ± 0.9 µM
Structure (SMILES): CCOC(=O)C1=C(Nc2ccccc2)S/C(=C\c2ccc(O)c(OCCOCCOCCOCCNC(=O)CCNc3nc(Nc4ccc(C5=NCCN5)cc4)nc(Nc4ccc(C5=NCCN5)cc4)n3)c2)C1=O

Kd [9]: 0.9 ± 0.2 µM
binding ([10]; no saturable binding): no
Structure (SMILES): CCOC(=O)C1=C(Nc2ccccc2)S/C(=C\c2ccc(O)c(OCCOCCOCCOCCNC(=O)c3cc(NC(=O)Nc4ccc(C5=NCCN5)cc4)cc(NC(=O)Nc4ccc(C5=NCCN5)cc4)c3)c2)C1=O

Kd [6]: 0.5 ± 0.2 µM
binding [7]: no
EC50 [8]: 1.8 ± 0.5 µM
Structure (SMILES): CCOC(=O)C1=C(Nc2ccccc2)S/C(=C\c2ccc(OCCOCCOCCOCCNC(=O)CCNc3nc(Nc4ccc(C5=NCCN5)cc4)nc(Nc4ccc(C5=NCCN5)cc4)n3)c(O)c2)C1=O

Kd [11]: 2.2 ± 0.9 µM
binding [12]: no
Structure (SMILES): CCOC(=O)C1=C(Nc2ccccc2)S/C(=C\c2ccc(OCCOCCOCCOCCNC(=O)CCc3c(C)n(-c4c(C(C)C)cccc4C(C)C)c[n+]3-c3c(C(C)C)cccc3C(C)C)c(O)c2)C1=O

Kd [9]: 1.1 ± 0.1 µM
binding ([10]; no saturable binding): no
Structure (SMILES): CCOC(=O)C1=C(Nc2ccccc2)S/C(=C\c2ccc(OCCOCCOCCOCCNC(=O)c3cc(NC(=O)Nc4ccc(C5=NCCN5)cc4)cc(NC(=O)Nc4ccc(C5=NCCN5)cc4)c3)c(O)c2)C1=O
